Source: the supplement of paper PMC12370961

Assays:
Experiment in all cases: differential drug sensitivity score (dDSS) relative to sarcoma reference cohort mean DSS (DSS units (0-100 scale difference)); higher = more selective sensitivity than reference sarcomas
Settings in all cases: exposure time: 72 h; concentration range: 10-10000 nM
CDS-ZH001 = system: CDS-ZH001 (patient-derived CIC-DUX4 sarcoma tumoroid)
Method: (§1)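 Drug response profiling of patient-derived Ewing sarcoma and CIC::DUX4 sarcoma tumoroid models (or cells tested directly after isolation from the tumor, 'direct'). The DSS is the normalised AUC (0-100); dDSS is the sample DSS minus the mean DSS of a 34-sarcoma reference cohort profiled in the same lab.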

ES-ZH016 direct = system: ES-ZH016 direct (Ewing sarcoma cells right after isolation)
Method: as §1

CDS-ZH002 direct = system: CDS-ZH002 direct (CIC-DUX4 sarcoma cells right after isolation)
Method: as §1

ES-ZH001 = system: ES-ZH001 (patient-derived Ewing sarcoma tumoroid)
Method: as §1

CDS-ZH002 = system: CDS-ZH002 (patient-derived CIC-DUX4 sarcoma tumoroid)
Method: as §1

ES-ZH009 = system: ES-ZH009 (patient-derived Ewing sarcoma tumoroid)
Method: as §1

ES-ZH002 = system: ES-ZH002 (patient-derived Ewing sarcoma tumoroid)
Method: as §1

CDS-ZH003 = system: CDS-ZH003 (patient-derived CIC-DUX4 sarcoma tumoroid)
Method: as §1

ES-ZH007 = system: ES-ZH007 (patient-derived Ewing sarcoma tumoroid)
Method: as §1

CDS-ZH001-2 = system: CDS-ZH001-2 (patient-derived CIC-DUX4 sarcoma tumoroid)
Method: as §1

ES-ZH016 = system: ES-ZH016 (patient-derived Ewing sarcoma tumoroid)
Method: as §1

ES-ZH008 = system: ES-ZH008 (patient-derived Ewing sarcoma tumoroid)
Method: as §1

ES-ZH004 = system: ES-ZH004 (patient-derived Ewing sarcoma tumoroid)
Method: as §1

Compound	differential drug sensitivity score (CDS-ZH001)	differential drug sensitivity score (ES-ZH016 direct)	differential drug sensitivity score (CDS-ZH002 direct)	differential drug sensitivity score (ES-ZH001)	differential drug sensitivity score (CDS-ZH002)	differential drug sensitivity score (ES-ZH009)	differential drug sensitivity score (ES-ZH002)	differential drug sensitivity score (CDS-ZH003)	differential drug sensitivity score (ES-ZH007)	differential drug sensitivity score (CDS-ZH001-2)	differential drug sensitivity score (ES-ZH016)	differential drug sensitivity score (ES-ZH008)	differential drug sensitivity score (ES-ZH004)
CC1(COc2ccc3c(c2)ncn3-c2ccc3cccc(N4CCC(N)CC4)c3n2)COC1 [Crenolanib]	2.5	1.2	-1.7	4	-2.3	2.8	3.4	-4.2	4	1.4	-1.3	-0.6	2.9
CC[C@]1(O)C[C@H]2CN(CCc3c([nH]c4ccccc34)[C@@](C(=O)OC)(c3cc4c(cc3OC)N(C=O)[C@H]3[C@@](O)(C(=O)OC)[C@H](OC(C)=O)[C@]5(CC)C=CCN6CC[C@]43[C@@H]65)C2)C1 [Vincristine]	9.3	10	13.4	24.2	10.8	26	24	-10.2	16.1	-4.8	18.3	16.9	13.2
O=C(Nc1cnn2ccc(N3CCC[C@@H]3c3cc(F)ccc3F)nc12)N1CC[C@H](O)C1 [Larotrectinib]	1.2	-0.9	-0.9	-0.9	-0.9	-0.9	-0.9	8.8	-0.9	-0.9	-0.9	-0.9	-0.8
CCCC(CCC)C(=O)O [Valproic acid]	-2.5	6.5	-1.9	2.8	-2.5	1.7	4.4	-1.3	0.9	-0.9	-2.5	1.7	8.2
COc1cc(OC)c2c(=O)[nH]c(-c3cc(C)c(OCCO)c(C)c3)nc2c1 [Apabetalone]	-0.6	-0.7	-0.7	-0.7	-0.7	0.5	0.6	3.6	-0.7	-0.7	-0.7	3.2	0.6
Nc1ccn([C@@H]2O[C@H](CO)[C@@H](O)[C@@H]2O)c(=O)n1 [Cytarabine]	-12.4	11.6	-8.5	8.3	1.3	-6.1	21.1	0.8	17	3.3	12.5	22.9	4.4
COc1cc(N2CCC(N3CCN(C)CC3)CC2)ccc1Nc1ncc(Cl)c(Nc2ccccc2P(C)(C)=O)n1 [Brigatinib]	3.4	0.4	-0.2	-0.4	-4.2	2.5	9	2	1.9	7.6	1.9	4.1	-3
C[C@]1(c2nc3c(C(N)=O)cccc3[nH]2)CCCN1 [Veliparib]	-1.3	5.6	-1.3	4.9	-1.3	-1.3	8.8	-0.6	1.4	-1.2	1.2	5.8	5.1
C[C@@H]1CN(C(=O)c2ccc(NC(=O)c3cc(O[C@H](C)c4c(Cl)ccc(F)c4Cl)c(N)nn3)cc2)C[C@H](C)N1 [Ensartinib]	5	3.7	-1.9	4.7	-0.8	-2.1	15.2	-1.2	4.2	5.2	3.9	13.9	4.3
CC(C)n1nc(-c2cc3cc(O)ccc3[nH]2)c2c(N)ncnc21 [Torkinib]	4.4	-1.3	-0.9	2.1	-1.3	2	13.7	-3.5	1.1	2.3	2.2	8.1	5.2
CCc1cc2c(cc1N1CCC(N3CCOCC3)CC1)C(C)(C)c1[nH]c3cc(C#N)ccc3c1C2=O [Alectinib]	-1.2	-1.3	-0.8	-0.5	-1.3	-1.3	4.6	2.4	-1.3	-1.3	-1.3	-0.7	-1.3
COc1ncc(-c2ccc3nccc(-c4ccnnc4)c3c2)cc1NS(=O)(=O)c1ccc(F)cc1F [Omipalisib]	6.3	2.7	-3.7	-3.7	-4.5	9	12.8	5.6	6.3	8.8	2	11.4	0.9
CN1CCC(CNc2ccc3ncc(-c4cccc(OC(F)(F)F)c4)n3n2)CC1 [SGI1776]	3.5	-0.3	-0.4	0.3	0.1	0.3	6.6	4.4	0.5	3.7	0.8	2.1	1.6
O=C(NCc1cccc(O)c1)Nc1nc(-c2ccncc2)cs1 [RKI1447]	-0.6	-1	-1.2	-1.2	-1	4.8	6.9	-0.9	-1.1	-1	0.4	-1.2	-0.2
Cn1c(Nc2ccc(C(F)(F)F)cc2)nc2cc(Oc3ccnc(-c4ncc(C(F)(F)F)[nH]4)c3)ccc21 [RAF-265]	-2.9	6.4	3	5.1	-6.1	9.3	6.1	-2.8	-0.7	0.9	1	5.2	-2.3
CC(C)c1cc(C(=O)N2Cc3ccc(CN4CCN(C)CC4)cc3C2)c(O)cc1O [Onalespib]	-3.5	6.1	-2.7	3.6	-6.3	4.9	9.5	-1.5	-3	0.4	-3.1	7.7	-1.2
N#Cc1ccc2[nH]c(O)c(-c3ccc(CN4CCOCC4)cn3)c2c1 [AZD1080]	-0.1	0.2	-0.1	-0.1	-0.1	0	-0.1	-0.1	0.4	-0.1	-0.1	1	0.6
Clc1ccc(NN=C(c2ccccc2)c2ccccn2)nc1 [JIB04]	-4.4	-0.6	-4.8	-6.1	1.4	-2.6	-6	-2.7	0.7	0.6	1.5	-2.5	-4.3
NS(=O)(=O)NCCNc1nonc1/C(=N/O)Nc1ccc(F)c(Br)c1 [Epacadostat]	-0.7	-0.5	-0.7	-0.7	-0.7	0	-0.2	0.6	-0.7	-0.7	0.1	5.6	0
CS(=O)(=O)OCCCCOS(C)(=O)=O [Busulfan]	-1.2	6.4	-1.2	3.9	-1.2	-1.2	5.9	-1.2	-1.2	-0.8	-1.1	-0.1	2.9
Cn1ncc(Cl)c1-c1cc(C(=O)N[C@H](CN)Cc2cccc(F)c2)sc1Cl [Afuresertib]	2.8	-3.4	-5.5	-4.1	-4.7	3.6	5.8	1.1	2.4	0.3	-0.3	4.6	4.1
NC(=O)C1CCCc2c1[nH]c1ccc(Cl)cc21 (configuration not stated) [Selisistat]	-0.5	-1.3	-1.4	-1.4	-0.9	-0.7	-1	-2	-1.4	-1.3	-0.9	8.9	-1.3
COc1ccc(C(=O)CC2(O)C(=O)Nc3c(Cl)ccc(Cl)c32)cc1 (configuration not stated) [YK-4-279]	0.2	2.9	-2	4.5	-3	3.8	8.2	-20.3	0	1.9	3.1	-0.3	-3.2
N#CCNC(=O)c1ccc(-c2ccnc(Nc3ccc(N4CCOCC4)cc3)n2)cc1 [Momelotinib]	-1.2	-0.5	-1.2	4	-1.2	0.5	3.7	-1.2	-1.2	-1.2	2.6	-0.8	-1.2
CC(=O)O[C@@]12CO[C@@H]1C[C@H](O)[C@@]1(C)C(=O)[C@H](O)C3=C(C)[C@@H](OC(=O)[C@H](O)[C@@H](NC(=O)OC(C)(C)C)c4ccccc4)C[C@@](O)([C@@H](OC(=O)c4ccccc4)[C@H]21)C3(C)C [Docetaxel]	-0.1	17.1	2	24.4	-3.2	26.8	23.8	-20.9	5.3	6.8	20	11.4	5.9
COc1cc2c(Nc3ccc(NC(=O)c4ccccc4)cc3)ncnc2cc1OCCCN1CCOCC1	0.8	6.7	0.1	4.9	-2.2	7.1	8.1	-2.2	0.4	2.9	1.6	-2	2.2
CCN(c1cc(-c2ccc(CN3CCOCC3)cc2)cc(C(=O)NCc2c(C)cc(C)[nH]c2=O)c1C)C1CCOCC1 [Tazemetostat]	-0.8	-1.1	-1.1	-1.1	-0.9	1	-1.1	-7	-1.1	-1.1	-0.7	-1.1	-1.1
CN1CC[C@@H](NC(=O)Nc2ccc(C#N)cc2)C[C@@H]1c1nc2ccccc2[nH]1 [Glasdegib]	-0.8	-0.8	-0.8	-0.8	-0.8	-0.8	1.3	2.5	-0.8	-0.8	-0.8	-0.8	-0.8
CO[C@H]1C[C@@H]2CC[C@@H](C)[C@@](O)(O2)C(=O)C(=O)N2CCCC[C@H]2C(=O)O[C@H]([C@H](C)C[C@@H]2CC[C@@H](O)[C@H](OC)C2)CC(=O)[C@H](C)/C=C(\C)[C@@H](O)[C@@H](OC)C(=O)[C@H](C)C[C@H](C)/C=C/C=C/C=C/1C [Sirolimus]	-10.4	-8.7	-2.2	5.7	-10.4	2.7	17.8	-6.7	7.2	-0.4	-0.6	6.7	14.2
